In patent US20200123620A1, “MiRNA-574-5p AS A BIOMARKER FOR STRATIFICATION OF PROSTAGLANDIN E-DEPENDENT TUMORS” (priority 2017, published 2020):

How the values were obtained:
Assay type in all cases: cell-based, human
mPGES-1 = mPGES-1 expression in transfected A549 cells (qRT-PCR, Western blot); settings: IL-1β 24 h, then 24 h stimulus-free medium
Description: (§1) CUGBP1 and GW182 were transiently depleted using siRNA oligonucleotides. 24 h prior to transfection, A549 cells were seeded at a density of 5×10^5 cells/well in a 6-well plate. 20 pmol/μl siRNA oligonucleotides were transfected using Lipofectamine 2000N (Invitrogen, Karlsruhe, GER) according to manufacturer's instructions. For GW182 knockdown, MISSION® siRNA SAS1_Hs01_00244664 (Sigma-Aldrich, Darmstadt. GER) were used, respectively. For CUGBP1 knockdown a previously published siRNA (5′-GCUGUUUAUUGGUAUGAUU-3′; SEQ ID NO:5) was used for our experiments. As control, a siRNA with an unspecific sequence was used (5′-UCUCUCACAACGGGCAUUU-3′; SEQ ID NO: 6). Cells were harvested 24 h and 48 h after transfection. The efficiency of CUGBP1 and GW182 knockdown was determined by qRT-PCR, Western blot and immunofluorescence staining.
24 h prior to transfection, A549 cells were seeded at a density of 5×10^5 per well in a 6-well plate. 20 pmol/μl miRIDIAN miR-574-5p mimics (HM10794, Sigma-Aldrich, Darmstadt, GER) or negative control (HMC0002, Sigma-Aldrich, Darmstadt, GER) were transfected using Lipofectamine 2000® according to the manufacturer's instructions. In the same way, the A549 cells were transfected with 40 pmol/μl miR-574-5p-LNA™ inhibitor (4101451-001) or negative control (199006-001, Exiqon, Kopenhagen, DEN) for the knockdown of miR-574-5p. The transfection efficiency was determined by qRT-PCR.
(§2) 1 μg of DNase-treated RNA was used for reverse transcription using High-Capacity RNA-to-cDNA Kit (Applied Biosystems, ThermoFisher Scientific, Waltham, USA) according to manufacturer's instructions. […] 1 μl cDNA (1:2 diluted) was used per reaction. β-Actin was used as endogenous control to normalize variations in cDNA quantities in different samples.
(§3) To obtain a whole cell lysate, A549 cells were lysed in T-PER™ tissue protein extraction reagent (Life Technologies, ThermoFisher Scientific, Waltham, USA) for 30 min at 4° C. […] The protein content was determined by Bradford assay (BioRad Laboratories, Hercules, USA). […]

COX-2 = COX-2 expression in transfected A549 cells (qRT-PCR, Western blot); settings: mRNA and protein
Description: as §1, with “Cells were harvested 24 h and 48 h after transfection.” left out
as §2, §3

A549 cells = assay: MTT cell proliferation assay; settings: data not shown
Description: For the detection of viable cells, an MTT (3-(4,5-dimethylthiazol-2-yl)-2,5-diphenyltetrazolium bromide) tetrazolium (Carl Roth, Karlsruhe, GER) reduction assay was performed. 24 h prior transfection, A549 cells were seeded at a density of 1×10^4 cells per well in 96-well plates. For the MTT reduction assay, 20 μl of 5 mg/ml MTT (in PBS) was added to the cells in culture and so incubated for 4 h. The medium was removed and 100 μl DMSO (Carl Roth, Karlsruhe, GER) was added. The quantity of formazan was measured by recording changes in the absorbance at 570 nm using a plate reading spectrophotometer. As a reference the wavelength of […] was used to correct for nonspecific background.

For “5′-GCUGUUUAUUGGUAUGAUU-3′ (listed as RNA, chemistry not given here) [ΔCUGBP1]”, the mPGES-1 protein expression (mPGES-1; Western blot) was “strongly upregulated”, the “mPGES-1 3′UTR isoform expression” value (mPGES-1; qRT-PCR) was “further increases” and the “mPGES-1 mRNA expression” value (mPGES-1; qRT-PCR) was “significantly upregulates”. The COX-2 level (COX-2) was “uninfluenced” and the “IL1β-induced cell proliferation of A549 cells” value (A549 cells) was “enhanced”.
